From ChEMBL document CHEMBL5058646 (2022)

What was measured:
[1] = target: Vascular endothelial growth factor receptor 1 (Homo sapiens) (UniProt P17948); test: FLT1 SGC Tm panel (DSF); conditions: Compound concentration 20.0 uM
[2] = target: Mitogen-activated protein kinase 9 (Homo sapiens) (UniProt P45984); test: MAPK9 SGC Tm panel (DSF); conditions: Compound concentration 20.0 uM
[3] = target: Alpha-2B adrenergic receptor (Homo sapiens) (UniProt P18089); conditions: Compound concentration 10.0 uM
Alpha-2B adrenergic receptor (Homo sapiens), sequence (P18089 whole entry): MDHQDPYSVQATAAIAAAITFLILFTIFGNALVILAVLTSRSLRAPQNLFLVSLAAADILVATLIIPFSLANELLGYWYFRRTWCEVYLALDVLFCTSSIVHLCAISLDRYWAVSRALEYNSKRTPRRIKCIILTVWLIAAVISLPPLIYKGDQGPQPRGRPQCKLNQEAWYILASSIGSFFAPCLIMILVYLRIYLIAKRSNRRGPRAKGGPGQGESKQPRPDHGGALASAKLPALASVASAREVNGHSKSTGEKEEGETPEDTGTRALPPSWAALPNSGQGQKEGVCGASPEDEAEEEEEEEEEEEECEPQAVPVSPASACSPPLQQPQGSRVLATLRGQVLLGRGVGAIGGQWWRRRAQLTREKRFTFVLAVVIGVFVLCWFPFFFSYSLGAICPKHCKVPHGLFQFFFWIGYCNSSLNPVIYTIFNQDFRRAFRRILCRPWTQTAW

[4] = target: Serine/threonine-protein kinase B-raf (Homo sapiens) (UniProt P15056); test: BRAF SGC Tm panel (DSF); conditions: Compound concentration 20.0 uM
Serine/threonine-protein kinase B-raf (Homo sapiens), sequence (P15056 whole entry): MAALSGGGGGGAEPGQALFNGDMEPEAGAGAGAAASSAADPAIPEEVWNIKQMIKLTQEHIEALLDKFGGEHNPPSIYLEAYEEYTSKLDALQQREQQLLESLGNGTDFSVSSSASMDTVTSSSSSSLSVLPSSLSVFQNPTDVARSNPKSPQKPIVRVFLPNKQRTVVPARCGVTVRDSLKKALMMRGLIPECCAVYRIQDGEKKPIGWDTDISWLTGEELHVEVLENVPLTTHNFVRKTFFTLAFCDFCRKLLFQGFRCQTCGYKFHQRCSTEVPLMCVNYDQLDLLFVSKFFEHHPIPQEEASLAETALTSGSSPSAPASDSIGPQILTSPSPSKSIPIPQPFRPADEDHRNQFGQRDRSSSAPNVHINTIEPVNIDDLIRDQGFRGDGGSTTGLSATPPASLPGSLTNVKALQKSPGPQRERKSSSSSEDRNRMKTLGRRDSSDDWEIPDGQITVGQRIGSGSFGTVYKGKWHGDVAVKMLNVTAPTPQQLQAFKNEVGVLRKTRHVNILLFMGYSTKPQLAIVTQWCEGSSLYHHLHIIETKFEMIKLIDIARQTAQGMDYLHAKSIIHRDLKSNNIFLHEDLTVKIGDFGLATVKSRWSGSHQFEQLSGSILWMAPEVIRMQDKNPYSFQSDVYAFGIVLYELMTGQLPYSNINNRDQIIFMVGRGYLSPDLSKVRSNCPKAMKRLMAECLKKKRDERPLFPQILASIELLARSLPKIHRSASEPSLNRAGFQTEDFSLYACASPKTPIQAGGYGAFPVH

[5] = target: Dual specificity protein kinase TTK (Homo sapiens) (UniProt P33981); test: TTK SGC Tm panel (DSF); conditions: Compound concentration 20.0 uM
[6] = target: Serine/threonine-protein kinase haspin (Homo sapiens) (UniProt Q8TF76); test: GSG2 SGC Tm panel (DSF); conditions: Compound concentration 20.0 uM
[7] = target: Aurora kinase A (Homo sapiens) (UniProt O14965); test: STK6 SGC Tm panel (DSF); conditions: Compound concentration 20.0 uM
[8] = target: Serine/threonine-protein kinase Nek7 (Homo sapiens) (UniProt Q8TDX7); test: NEK7 SGC Tm panel (DSF); conditions: Compound concentration 20.0 uM
[9] = target: Mitogen-activated protein kinase 8 (Homo sapiens) (UniProt P45983); test: MAPK8 SGC Tm panel (DSF); conditions: Compound concentration 20.0 uM
Mitogen-activated protein kinase 8 (Homo sapiens), sequence (P45983 whole entry, the tested form may be a part): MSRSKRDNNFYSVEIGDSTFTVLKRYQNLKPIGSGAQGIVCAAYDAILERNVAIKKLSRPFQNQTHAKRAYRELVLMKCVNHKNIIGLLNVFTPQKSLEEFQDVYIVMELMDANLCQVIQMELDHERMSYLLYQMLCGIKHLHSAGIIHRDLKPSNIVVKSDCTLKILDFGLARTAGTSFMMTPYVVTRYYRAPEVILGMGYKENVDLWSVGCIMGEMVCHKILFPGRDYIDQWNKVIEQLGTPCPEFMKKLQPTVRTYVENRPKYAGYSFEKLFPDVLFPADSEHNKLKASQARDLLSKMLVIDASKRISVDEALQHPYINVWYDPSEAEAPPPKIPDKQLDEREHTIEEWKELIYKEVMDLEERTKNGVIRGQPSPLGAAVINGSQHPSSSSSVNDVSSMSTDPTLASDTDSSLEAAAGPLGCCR

[10] = target: T1, Zinc finger and BTB domain-containing protein 11 (Homo sapiens) (UniProt O95625); conditions: OCI-Ly1, Compound concentration 1.0 uM
T1 sequence (whole entry): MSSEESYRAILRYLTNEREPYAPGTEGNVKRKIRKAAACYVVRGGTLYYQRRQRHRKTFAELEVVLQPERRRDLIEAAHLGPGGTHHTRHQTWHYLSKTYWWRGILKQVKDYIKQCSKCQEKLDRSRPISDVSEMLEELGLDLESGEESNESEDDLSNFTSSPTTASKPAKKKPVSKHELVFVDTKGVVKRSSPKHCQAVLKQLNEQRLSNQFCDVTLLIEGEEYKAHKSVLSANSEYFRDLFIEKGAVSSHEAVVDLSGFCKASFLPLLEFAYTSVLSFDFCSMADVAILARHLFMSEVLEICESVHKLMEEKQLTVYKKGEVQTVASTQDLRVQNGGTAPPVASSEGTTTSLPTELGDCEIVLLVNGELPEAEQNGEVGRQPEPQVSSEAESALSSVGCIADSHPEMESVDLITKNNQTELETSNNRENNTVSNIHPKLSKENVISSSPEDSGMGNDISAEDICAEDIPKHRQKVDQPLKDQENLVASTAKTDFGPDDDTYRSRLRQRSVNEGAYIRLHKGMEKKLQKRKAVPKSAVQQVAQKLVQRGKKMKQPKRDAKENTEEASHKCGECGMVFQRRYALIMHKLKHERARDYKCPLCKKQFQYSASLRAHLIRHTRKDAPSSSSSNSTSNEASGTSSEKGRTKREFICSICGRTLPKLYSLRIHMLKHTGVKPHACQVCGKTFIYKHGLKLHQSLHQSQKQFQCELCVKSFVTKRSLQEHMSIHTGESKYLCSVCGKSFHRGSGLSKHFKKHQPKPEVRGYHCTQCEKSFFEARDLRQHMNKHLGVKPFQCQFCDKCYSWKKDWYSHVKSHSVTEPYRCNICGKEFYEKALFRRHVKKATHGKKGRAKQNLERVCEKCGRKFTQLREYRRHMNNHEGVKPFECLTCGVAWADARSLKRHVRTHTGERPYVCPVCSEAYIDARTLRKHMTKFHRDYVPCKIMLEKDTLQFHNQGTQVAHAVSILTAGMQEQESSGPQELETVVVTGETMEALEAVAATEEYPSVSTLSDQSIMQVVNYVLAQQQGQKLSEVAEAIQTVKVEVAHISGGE

[11] = target: BMP-2-inducible protein kinase (Homo sapiens) (UniProt Q9NSY1); test: BMP2K SGC Tm panel (DSF); conditions: Compound concentration 20.0 uM
BMP-2-inducible protein kinase (Homo sapiens), sequence (Q9NSY1 whole entry, looked up): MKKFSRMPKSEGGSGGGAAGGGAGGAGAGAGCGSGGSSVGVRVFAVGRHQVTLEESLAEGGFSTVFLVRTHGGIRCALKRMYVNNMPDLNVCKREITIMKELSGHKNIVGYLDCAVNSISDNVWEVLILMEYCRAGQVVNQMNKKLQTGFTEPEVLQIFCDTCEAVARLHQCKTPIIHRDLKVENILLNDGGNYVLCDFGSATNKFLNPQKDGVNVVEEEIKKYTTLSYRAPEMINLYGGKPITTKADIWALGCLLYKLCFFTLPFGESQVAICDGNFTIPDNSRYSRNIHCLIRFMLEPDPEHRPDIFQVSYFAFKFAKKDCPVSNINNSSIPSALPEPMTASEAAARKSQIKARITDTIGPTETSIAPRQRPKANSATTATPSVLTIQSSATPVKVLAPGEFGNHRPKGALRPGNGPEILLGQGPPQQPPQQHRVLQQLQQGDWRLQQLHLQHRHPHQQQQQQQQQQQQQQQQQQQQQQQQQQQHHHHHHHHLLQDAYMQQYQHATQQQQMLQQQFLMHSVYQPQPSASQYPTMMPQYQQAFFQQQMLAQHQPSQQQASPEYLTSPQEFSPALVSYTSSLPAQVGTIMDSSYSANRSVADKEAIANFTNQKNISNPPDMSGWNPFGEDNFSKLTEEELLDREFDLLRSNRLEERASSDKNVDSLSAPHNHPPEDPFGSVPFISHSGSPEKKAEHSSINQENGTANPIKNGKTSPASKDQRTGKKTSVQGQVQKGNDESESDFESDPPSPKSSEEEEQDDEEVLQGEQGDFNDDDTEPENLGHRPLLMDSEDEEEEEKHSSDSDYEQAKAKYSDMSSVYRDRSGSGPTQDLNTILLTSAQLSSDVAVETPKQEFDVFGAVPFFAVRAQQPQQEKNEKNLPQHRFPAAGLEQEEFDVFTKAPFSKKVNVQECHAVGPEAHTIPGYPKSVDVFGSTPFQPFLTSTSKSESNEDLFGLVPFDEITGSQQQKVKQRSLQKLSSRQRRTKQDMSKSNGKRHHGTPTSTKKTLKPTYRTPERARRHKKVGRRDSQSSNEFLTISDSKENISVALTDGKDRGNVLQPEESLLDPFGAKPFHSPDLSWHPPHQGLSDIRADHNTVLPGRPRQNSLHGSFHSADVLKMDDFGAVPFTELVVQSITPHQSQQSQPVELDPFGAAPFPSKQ

[12] = target: Bromodomain-containing protein 4 (Homo sapiens) (UniProt O60885); test: BRD4 SGC Tm panel (DSF); conditions: Compound concentration 20.0 uM
[13] = target: Mitogen-activated protein kinase 14 (Homo sapiens) (UniProt Q16539); test: MAPK14 SGC Tm panel (DSF); conditions: Compound concentration 20.0 uM
Mitogen-activated protein kinase 14 (Homo sapiens), sequence (Q16539 whole entry, the tested form may be a part): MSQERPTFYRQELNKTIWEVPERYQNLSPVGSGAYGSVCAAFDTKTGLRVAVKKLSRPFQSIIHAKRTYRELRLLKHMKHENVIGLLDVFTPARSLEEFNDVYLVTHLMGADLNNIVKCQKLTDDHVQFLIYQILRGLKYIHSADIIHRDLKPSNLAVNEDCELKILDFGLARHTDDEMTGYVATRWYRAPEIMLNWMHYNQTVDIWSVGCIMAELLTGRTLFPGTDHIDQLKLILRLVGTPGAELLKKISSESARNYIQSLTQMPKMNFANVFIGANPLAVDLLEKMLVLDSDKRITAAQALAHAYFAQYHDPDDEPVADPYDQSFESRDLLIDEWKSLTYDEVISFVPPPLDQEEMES

[14] = target: T2, Zinc finger and BTB domain-containing protein 2 (Homo sapiens) (UniProt Q8N680); conditions: SUD4, Compound concentration 1.0 uM
T2 sequence (whole entry): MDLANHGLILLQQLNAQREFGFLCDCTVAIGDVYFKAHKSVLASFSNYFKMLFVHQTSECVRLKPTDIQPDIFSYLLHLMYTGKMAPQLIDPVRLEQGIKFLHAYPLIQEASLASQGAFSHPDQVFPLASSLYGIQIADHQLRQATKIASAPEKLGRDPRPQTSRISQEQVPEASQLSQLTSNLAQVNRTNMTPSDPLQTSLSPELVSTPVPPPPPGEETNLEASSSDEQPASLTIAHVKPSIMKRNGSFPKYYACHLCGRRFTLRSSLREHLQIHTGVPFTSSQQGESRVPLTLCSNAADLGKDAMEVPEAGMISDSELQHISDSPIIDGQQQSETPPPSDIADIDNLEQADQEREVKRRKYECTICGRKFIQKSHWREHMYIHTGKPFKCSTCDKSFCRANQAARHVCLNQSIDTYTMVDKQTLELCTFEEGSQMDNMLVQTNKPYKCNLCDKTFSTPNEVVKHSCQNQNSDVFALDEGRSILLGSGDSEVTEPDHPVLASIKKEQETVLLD

Vascular endothelial growth factor receptor 1 (Homo sapiens), sequence (P17948 whole entry): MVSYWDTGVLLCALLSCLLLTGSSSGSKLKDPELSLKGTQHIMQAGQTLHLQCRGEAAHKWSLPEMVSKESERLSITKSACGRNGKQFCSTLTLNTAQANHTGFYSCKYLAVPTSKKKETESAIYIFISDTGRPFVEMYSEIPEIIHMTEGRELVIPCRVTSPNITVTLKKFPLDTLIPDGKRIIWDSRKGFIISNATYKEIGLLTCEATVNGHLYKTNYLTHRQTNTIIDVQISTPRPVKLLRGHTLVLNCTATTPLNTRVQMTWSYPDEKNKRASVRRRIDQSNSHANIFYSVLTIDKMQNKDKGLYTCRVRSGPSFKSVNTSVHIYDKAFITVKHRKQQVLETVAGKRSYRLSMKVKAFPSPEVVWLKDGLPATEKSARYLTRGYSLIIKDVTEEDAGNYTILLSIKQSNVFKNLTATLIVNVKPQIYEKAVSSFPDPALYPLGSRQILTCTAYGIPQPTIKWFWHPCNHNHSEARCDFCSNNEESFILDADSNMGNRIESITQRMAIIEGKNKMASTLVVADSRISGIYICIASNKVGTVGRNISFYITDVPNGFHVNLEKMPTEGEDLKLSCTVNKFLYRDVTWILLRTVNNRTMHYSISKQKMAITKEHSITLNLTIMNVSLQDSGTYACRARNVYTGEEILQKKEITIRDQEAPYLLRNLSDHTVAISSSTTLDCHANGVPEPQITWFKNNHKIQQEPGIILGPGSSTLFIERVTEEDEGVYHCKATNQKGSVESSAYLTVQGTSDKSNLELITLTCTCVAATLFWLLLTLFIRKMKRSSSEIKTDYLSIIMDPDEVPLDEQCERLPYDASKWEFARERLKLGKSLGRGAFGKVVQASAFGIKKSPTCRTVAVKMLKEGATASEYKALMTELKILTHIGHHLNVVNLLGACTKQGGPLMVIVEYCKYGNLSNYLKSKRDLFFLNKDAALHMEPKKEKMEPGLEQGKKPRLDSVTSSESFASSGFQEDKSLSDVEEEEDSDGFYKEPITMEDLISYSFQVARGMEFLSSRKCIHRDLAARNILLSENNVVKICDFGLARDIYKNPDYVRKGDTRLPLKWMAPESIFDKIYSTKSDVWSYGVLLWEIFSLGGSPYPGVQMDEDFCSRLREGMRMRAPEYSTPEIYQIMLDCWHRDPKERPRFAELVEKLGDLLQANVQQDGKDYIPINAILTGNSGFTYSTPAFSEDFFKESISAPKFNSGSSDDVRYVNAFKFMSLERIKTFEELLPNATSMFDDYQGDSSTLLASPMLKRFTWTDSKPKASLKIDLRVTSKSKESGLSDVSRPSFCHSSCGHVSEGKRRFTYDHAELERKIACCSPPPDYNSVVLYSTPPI
Mitogen-activated protein kinase 9 (Homo sapiens), sequence (P45984 whole entry, looked up): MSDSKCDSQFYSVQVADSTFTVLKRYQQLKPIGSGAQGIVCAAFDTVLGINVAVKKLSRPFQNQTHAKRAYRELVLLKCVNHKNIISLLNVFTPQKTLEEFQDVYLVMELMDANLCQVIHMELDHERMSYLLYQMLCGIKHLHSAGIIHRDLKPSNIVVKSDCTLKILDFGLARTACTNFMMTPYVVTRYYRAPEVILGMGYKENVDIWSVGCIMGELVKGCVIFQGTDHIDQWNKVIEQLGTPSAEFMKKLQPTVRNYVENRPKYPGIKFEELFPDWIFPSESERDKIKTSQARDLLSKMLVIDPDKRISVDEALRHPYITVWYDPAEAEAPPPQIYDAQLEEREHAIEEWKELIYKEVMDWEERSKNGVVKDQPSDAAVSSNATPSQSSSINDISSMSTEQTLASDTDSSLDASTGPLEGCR

C[C@@H]1CN(c2ncc(Cl)c(Nc3ccc4c(c3)n(CCC(C)(C)O)c(=O)n4C)n2)C[C@H](C)C1(F)F
inactive: Tm [1] 45 °C | Tm [2] 54 °C | inhibition [3] 7.28% | Tm [4] 39 °C | Tm [5] 46 °C | Tm [6] 45 °C | Tm [7] 45 °C | Tm [8] 42 °C | Tm [9] 43 °C | LogFC [10] -0.00672 | Tm [11] 43 °C | Tm [12] 44 °C | Tm [13] 45 °C | LogFC [14] 0.153
